Test system: RS4;11 cells
Experiment: Cell viability assay (CellTiter-Glo) in RS4;11 cells
Assay type: cell-based
Details: Homo sapiens, 72 h; RS4;11 ALL cells treated for three days; read-out: cell viability inhibition IC50
Outline: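 Three-day compound treatment of RS4;11 ALL cells (5000/well, 3-fold dilution series of 8 or 12 points), with IC50 from a nonlinear least-squares fit to CellTiter-Glo viability data.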

IC50 [nM]	SMILES
< 100	Cc1cnc(Nc2ccc(N3CCN(C(=O)CNc4ccc5c(c4)C(=O)N(C4CCC(=O)NC4=O)C5=O)CC3)cc2)nc1Nc1cccc(S(=O)(=O)NC(C)(C)C)c1 (centres unmarked) [JA-225, N-(tert-butyl)-3-((2-((4-(4-((2-(2,6-dioxopiperidin-3-yl)-1,3-dioxoisoindolin-5-yl)glycyl)piperazin-1-yl)phenyl)amino)-5-methylpyrimidin-4-yl)amino)benzenesulfonamide]

Same assay, conditions: Homo sapiens, 72 h; RS4;11 cells; cell viability, 3 days, CellTiter-Glo; read-out: IC50

SMILES	IC50 [nM]
O=C(CN1CCC(n2cc(-c3cnc4cccc(-c5cc(F)c(CN6CCOCC6)c(F)c5)c4n3)cn2)CC1)NCCNc1cccc2c1C(=O)N(C1CCC(=O)NC1=O)C2=O (centres unmarked) [JA-144, 2-[4-[4-[8-[3,5-Difluoro-4-(morpholinomethyl)phenyl]quinoxalin-2-yl]pyrazol-1-yl]-1-piperidyl]-N-[2-[[2-(2,6-dioxo-3-piperidyl)-1,3-dioxo-isoindolin-4-yl]amino]ethyl]acetamide]	2390
Cc1ncsc1-c1ccc(CNC(=O)[C@@H]2C[C@@H](O)CN2C(=O)[C@@H](NC(=O)CCOCCC(=O)N2CCC(n3cc(-c4cnc5cccc(-c6cc(F)c(CN7CCOCC7)c(F)c6)c5n4)cn3)CC2)C(C)(C)C)cc1 [JA-058, (2S,4R)-1-[(2S)-2-[3-[3-[4-[4-[8-[3,5-Difluoro-4-(morpholinomethyl)phenyl]quinoxalin-2-yl]pyrazol-1-yl]-1-piperidyl]-3-oxo-propoxy]propanoylamino]-3,3-dimethyl-butanoyl]-4-hydroxy-N-[[4-(4-methylthiazol-5-yl)phenyl]methyl]pyrrolidine-2-carboxamide]	2520
O=C(CN1CCC(n2cc(-c3cnc4cccc(-c5cc(F)c(CN6CCOCC6)c(F)c5)c4n3)cn2)CC1)NCCOCCNc1ccc2c(c1)C(=O)N(C1CCC(=O)NC1=O)C2=O (centres unmarked) [JA-169, 2-(4-(4-(8-(3,5-Difluoro-4-(morpholinomethyl)phenyl)quinoxalin-2-yl)-1H-pyrazol-1-yl)piperidin-1-yl)-N-(2-(2-((2-(2,6-dioxopiperidin-3-yl)-1,3-dioxoisoindolin-5-yl)amino)ethoxy)ethyl)acetamide]	2030
CS(=O)(=O)c1ccc(-c2cccc3nc(Nc4ccc(N5CCN(CC(=O)NCCOCCOCCOCCOCCOCCNc6cccc7c6C(=O)N(C6CCC(=O)NC6=O)C7=O)CC5)cc4)nn23)cc1 (centres unmarked) [JA-129, N-(17-((2-(2,6-Dioxopiperidin-3-yl)-1,3-dioxoisoindolin-4-yl)amino)-3,6,9,12,15-pentaoxaheptadecyl)-2-(4-(4-((5-(4-(methylsulfonyl)phenyl)-[1,2,4]triazolo[1,5-a]pyridin-2-yl)amino)phenyl)piperazin-1-yl)acetamide]	> 10000
O=C1CCC(N2C(=O)c3cccc(NCCCCCCCC(=O)N4CCC(n5cc(-c6cnc7cccc(-c8cc(F)c(CN9CCOCC9)c(F)c8)c7n6)cn5)CC4)c3C2=O)C(=O)N1 (centres unmarked) [JA-038, 4-[[8-[4-[4-[8-[3,5-Difluoro-4-(morpholinomethyl)phenyl]quinoxalin-2-yl]pyrazol-1-yl]-1-piperidyl]-8-oxo-octyl]amino]-2-(2,6-dioxo-3-piperidyl)isoindoline-1,3-dione]	> 10000
Cc1ncsc1-c1ccc(CNC(=O)[C@@H]2C[C@@H](O)CN2C(=O)[C@@H](NC(=O)COCCOCC(=O)N2CCC(n3cc(-c4cnc5cccc(-c6cc(F)c(CN7CCOCC7)c(F)c6)c5n4)cn3)CC2)C(C)(C)C)cc1 [JA-054, (2S,4R)-1-[(2S)-2-[[2-[2-[2-[4-[4-[8-[3,5-Difluoro-4-(morpholinomethyl)phenyl]quinoxalin-2-yl]pyrazol-1-yl]-1-piperidyl]-2-oxo-ethoxy]ethoxy]acetyl]amino]-3,3-dimethyl-butanoyl]-4-hydroxy-N-[[4-(4-methylthiazol-5-yl)phenyl]methyl]pyrrolidine-2-carboxamide]	> 10000
Cc1ncsc1-c1ccc(CNC(=O)[C@@H]2C[C@@H](O)CN2C(=O)[C@@H](NC(=O)COCC(=O)N2CCN(c3ccc(Nc4nc5cccc(-c6ccc(S(C)(=O)=O)cc6)n5n4)cc3)CC2)C(C)(C)C)cc1 [JA-072, (2S,4R)-1-((S)-3,3-Dimethyl-2-(2-(2-(4-(4-((5-(4-(methylsulfonyl)phenyl)-[1,2,4]triazolo[1,5-a]pyridin-2-yl)amino)phenyl)piperazin-1-yl)-2-oxoethoxy)acetamido)butanoyl)-4-hydroxy-N-(4-(4-methylthiazol-5-yl)benzyl)pyrrolidine-2-carboxamide]	6460
Cc1cnc(Nc2ccc(N3CCN(C(=O)COCCOCC(=O)N[C@H](C(=O)N4C[C@H](O)C[C@H]4C(=O)NCc4ccc(-c5scnc5C)cc4)C(C)(C)C)CC3)cc2)nc1Nc1cccc(S(=O)(=O)NC(C)(C)C)c1 [JA-032, (2S,4R)-1-((S)-2-(2-(2-(2-(4-(4-((4-((3-(N-(tert-Butyl)sulfamoyl)phenyl)amino)-5-methylpyrimidin-2-yl)amino)phenyl)piperazin-1-yl)-2-oxoethoxy)ethoxy)acetamido)-3,3-dimethylbutanoyl)-4-hydroxy-N-(4-(4-methylthiazol-5-yl)benzyl)pyrrolidine-2-carboxamide]	> 10000
Cc1cnc(Nc2ccc(N3CCN(C(=O)CCOCCOCCOCCNc4cccc5c4C(=O)N(C4CCC(=O)NC4=O)C5=O)CC3)cc2)nc1Nc1cccc(S(=O)(=O)NC(C)(C)C)c1 (centres unmarked) [JA-019, N-(tert-Butyl)-3-((2-((4-(4-(3-(2-(2-(2-((2-(2,6-dioxopiperidin-3-yl)-1,3-dioxoisoindolin-4-yl)amino)ethoxy)ethoxy)ethoxy)propanoyl)piperazin-1-yl)phenyl)amino)-5-methylpyrimidin-4-yl)amino)benzenesulfonamide]	357
Cc1ncsc1-c1ccc(CNC(=O)[C@@H]2C[C@@H](O)CN2C(=O)[C@@H](NC(=O)CCCC(=O)N2CCC(n3cc(-c4cnc5cccc(-c6cc(F)c(CN7CCOCC7)c(F)c6)c5n4)cn3)CC2)C(C)(C)C)cc1 [JA-046, (2S,4R)-1-[(2S)-2-[[5-[4-[4-[8-[3,5-Difluoro-4-(morpholinomethyl)phenyl]quinoxalin-2-yl]pyrazol-1-yl]-1-piperidyl]-5-oxo-pentanoyl]amino]-3,3-dimethyl-butanoyl]-4-hydroxy-N-[[4-(4-methylthiazol-5-yl)phenyl]methyl]pyrrolidine-2-carboxamide]	> 10000
Cc1cnc(Nc2ccc(N3CCN(CC(=O)NCCCCNc4cccc5c4C(=O)N(C4CCC(=O)NC4=O)C5=O)CC3)cc2)nc1Nc1cccc(S(=O)(=O)NC(C)(C)C)c1 (centres unmarked) [JA-092, 2-(4-(4-((4-((3-(N-(tert-Butyl)sulfamoyl)phenyl)amino)-5-methylpyrimidin-2-yl)amino)phenyl)piperazin-1-yl)-N-(4-((2-(2,6-dioxopiperidin-3-yl)-1,3-dioxoisoindolin-4-yl)amino)butyl)acetamide]	2830

The remaining lines, values ahead:

IC50 [nM]	SMILES
> 500	O=C1CCC(n2c(=O)n(CCCCCC(=O)N3CCC(n4cc(-c5cnc6cccc(-c7cc(F)c(CN8CCOCC8)c(F)c7)c6n5)cn4)CC3)c3ccccc32)C(=O)N1 (centres unmarked) [JA-278, 3-(3-(6-(4-(4-(8-(3,5-Difluoro-4-(morpholinomethyl)phenyl)quinoxalin-2-yl)-1H-pyrazol-1-yl)piperidin-1-yl)-6-oxohexyl)-2-oxo-2,3-dihydro-1H-benzo[d]imidazol-1-yl)piperidine-2,6-dione]
3.6	O=C1CCC(N2Cc3cc(OCCCCCC(=O)N4CCC(n5cc(-c6cnc7cccc(-c8cc(F)c(CN9CCOCC9)c(F)c8)c7n6)cn5)CC4)ccc3C2=O)C(=O)N1 (centres unmarked) [JA-263, 3-(5-((6-(4-(4-(8-(3,5-difluoro-4-(morpholinomethyl)phenyl)quinoxalin-2-yl)-1H-pyrazol-1-yl)piperidin-1-yl)-6-oxohexyl)oxy)-1-oxoisoindolin-2-yl)piperidine-2,6-dione]
> 10000	O=C1CCC(N2C(=O)c3ccc(NCCCC(=O)N4CCC(n5cc(-c6cnc7cccc(-c8cc(F)c(CN9CCOCC9)c(F)c8)c7n6)cn5)CC4)cc3C2=O)C(=O)N1 (centres unmarked) [JA-192, 5-((4-(4-(4-(8-(3,5-Difluoro-4-(morpholinomethyl)phenyl)quinoxalin-2-yl)-1H-pyrazol-1-yl)piperidin-1-yl)-4-oxobutyl)amino)-2-(2,6-dioxopiperidin-3-yl)isoindoline-1,3-dione]
5160	O=C1CCC(N2C(=O)c3ccc(NCCC(=O)N4CCC(n5cc(-c6cnc7cccc(-c8cc(F)c(CN9CCOCC9)c(F)c8)c7n6)cn5)CC4)cc3C2=O)C(=O)N1 (centres unmarked) [JA-190, 5-((3-(4-(4-(8-(3,5-Difluoro-4-(morpholinomethyl)phenyl)quinoxalin-2-yl)-1H-pyrazol-1-yl)piperidin-1-yl)-3-oxopropyl)amino)-2-(2,6-dioxopiperidin-3-yl)isoindoline-1,3-dione]
1350	O=C1CCC(N2C(=O)c3ccc(CCCCCCCN4CCC(n5cc(-c6cnc7cccc(-c8cc(F)c(CN9CCOCC9)c(F)c8)c7n6)cn5)CC4)cc3C2=O)C(=O)N1 (centres unmarked) [JA-265, 5-(7-(4-(4-(8-(3,5-Difluoro-4-(morpholinomethyl)phenyl)quinoxalin-2-yl)-1H-pyrazol-1-yl)piperidin-1-yl)heptyl)-2-(2,6-dioxopiperidin-3-yl)isoindoline-1,3-dione]
1900	O=C(CN1CCC(n2cc(-c3cnc4cccc(-c5cc(F)c(CN6CCOCC6)c(F)c5)c4n3)cn2)CC1)NCCCCCCNc1ccc2c(c1)C(=O)N(C1CCC(=O)NC1=O)C2=O (centres unmarked) [JA-178, 2-(4-(4-(8-(3,5-Difluoro-4-(morpholinomethyl)phenyl)quinoxalin-2-yl)-1H-pyrazol-1-yl)piperidin-1-yl)-N-(6-((2-(2,6-dioxopiperidin-3-yl)-1,3-dioxoisoindolin-5-yl)amino)hexyl)acetamide]
229	Cc1cnc(Nc2ccc(N3CCN(CC(=O)NCCCCCCCNc4ccc5c(c4)C(=O)N(C4CCC(=O)NC4=O)C5=O)CC3)cc2)nc1Nc1cccc(S(=O)(=O)NC(C)(C)C)c1 (centres unmarked) [JA-246, 2-(4-(4-((4-((3-(N-(tert-butyl)sulfamoyl)phenyl)amino)-5-methylpyrimidin-2-yl)amino)phenyl)piperazin-1-yl)-N-(7-((2-(2,6-dioxopiperidin-3-yl)-1,3-dioxoisoindolin-5-yl)amino)heptyl)acetamide]
65.8	Cc1cnc(Nc2ccc(N3CCN(C(=O)CNc4ccc5c(c4)C(=O)N(C4CCC(=O)NC4=O)C5=O)CC3)cc2)nc1Nc1cccc(S(=O)(=O)NC(C)(C)C)c1 (centres unmarked) [JA-225, N-(tert-butyl)-3-((2-((4-(4-((2-(2,6-dioxopiperidin-3-yl)-1,3-dioxoisoindolin-5-yl)glycyl)piperazin-1-yl)phenyl)amino)-5-methylpyrimidin-4-yl)amino)benzenesulfonamide]
